Experiment [1] has as its system influenza A virus (A/PR/8/34). Briefly: microbe, parasite or virus in culture. Type of experiment: cell-based.
The subject of experiment [2] is A/PR/8/34 influenza virus. Briefly: microbe, parasite or virus in culture. Type of experiment: cell-based.
[3] abbreviates: Influenza A virus, PR/8, MDCK, MDCK cells infected with A/PR/8/34, survival of infected cells, class symbols, read-out: IC50 (mean all).
The mark [4] stands for this setting: Influenza A virus, PR/8, MDCK, MDCK cells infected with A/PR/8/34, replication of influenza virus (viral RNA, bDNA), class symbols, read-out: EC50 (mean all).
The mark [5] stands for this setting: Influenza A virus, PR/8, MDCK, MDCK cells infected with A/PR/8/34, cell protection (CPE), read-out: IC50 (mean all).
Setting [6] is: Influenza A virus, PR/8, MDCK, MDCK cells infected with A/PR/8/34, bDNA viral RNA, read-out: EC50 (mean all).
Setting [7] is: mean all, MDCK cells infected with A/PR/8/34, cell protection (CPE), read-out: IC50.
Setting [8] is: mean all, bDNA viral RNA in MDCK cells infected with A/PR/8/34, read-out: EC50.

Where two headings read alike, the source gives them in different places. Bounds are passed on as bounds.

A word on the IC50: it is the concentration needed to halve the response being measured. Usually EC50 stands for the concentration needed to bring the measured effect to its halfway point. In the case of `Fc1cnc(-c2c[nH]c3ncc(Cl)cc23)nc1N[C@H]1CCC[C@@H](c2nnn[nH]2)C1` [Compound 855, N-((1S,3R)-3-(1H-tetrazol-5-yl)cyclohexyl)-2-(5-chloro-1H-pyrrolo[2,3-b]pyridin-3-yl)-5-fluoropyrimidin-4-amine], in experiment [1] (Influenza A virus, PR/8, MDCK, mean all, A/PR/8/34 infected MDCK cells, cell protection (CPE), read-out: IC50), the IC50 is < 5 µM. Also, the EC50 in experiment [2] (Influenza A virus, PR/8, mean all, A/PR/8/34 influenza virus replication, bDNA, read-out: EC50) was < 5 µM.
As to `O=C1NCCOCC1Nc1nc(-c2c[nH]c3ncc(Cl)cc23)ncc1F` (stereo not shown) [Compound 513, 6-(2-(5-chloro-1H-pyrrolo[2,3-b]pyridin-3-yl)-5-fluoropyrimidin-4-ylamino)-1,4-oxazepan-5-one], the IC50 in experiment [1] (setting [3]) fell in the range of 5 to 20 µM. In addition, the EC50 in experiment [2] (setting [4]) is < 5 µM.
On to `CC#CCOC(=O)N1CCC[C@@H](CNc2nc(-c3c[nH]c4ncc(Cl)cc34)ncc2F)C1` [Compound 30, (S)-but-2-ynyl 3-((2-(5-chloro-1H-pyrrolo[2,3-b]pyridin-3-yl)-5-fluoropyrimidin-4-ylamino)methyl)piperidine-1-carboxylate], for which the half-maximal inhibitory concentration (IC50) in experiment [1] (Influenza A virus, PR/8, MDCK, read-out: IC50 (mean all)) lay in the range of 5 to 20 µM. The EC50 in experiment [2] (Influenza A virus, PR/8, MDCK, read-out: EC50 (mean all)) is < 5 µM.
Turning to `CC(Cl)C(=O)N1CCC[C@H](CNc2nc(-c3c[nH]c4ncc(Cl)cc34)ncc2F)C1` (stereo partly drawn) [Compound 93, 2-chloro-1-((R)-3-((2-(5-chloro-1H-pyrrolo[2,3-b]pyridin-3-yl)-5-fluoropyrimidin-4-ylamino)methyl)piperidin-1-yl)propan-1-one], the IC50 in experiment [1] (setting [5]) is < 5 µM. For the same compound, in experiment [2] (setting [6]), the EC50 was < 5 µM.
Turning to `NC(=O)CN1CCC[C@H](Nc2nc(-c3c[nH]c4ncc(Cl)cc34)ncc2F)C1` [Compound 567], the IC50 in experiment [1] (setting [3]) was < 5 µM. In experiment [2] (setting [4]), the EC50 is < 5 µM.
`CS(=O)(=O)NC1CCCC(Nc2nc(-c3c[nH]c4ncc(Cl)cc34)ncc2F)C1` (stereo not shown) [Compound 454, N-[3-[[2-(5-chloro-1H-pyrrolo[2,3-b]pyridin-3-yl)-5-fluoro-pyrimidin-4-yl]amino]cyclohexyl]methanesulfonamide]: in experiment [1] (Influenza A virus, PR/8, MDCK, mean all, A/PR/8/34 infected MDCK cells, CPE assay, read-out: IC50), the IC50 is < 5 µM. For the same compound, the EC50 in experiment [2] (Influenza A virus, PR/8, MDCK, mean all, A/PR/8/34 influenza virus in MDCK cells, bDNA assay, read-out: EC50) is < 5 µM.
Turning to `CC(C)(O)c1nc(-c2c[nH]c3ncc(Cl)cc23)nc(NC2CCCCC2C(=O)O)c1F` (stereo not shown) [Compound 673], the IC50 in experiment [1] (setting [7]) was < 5 µM. Also, the EC50 in experiment [2] (setting [8]) was < 5 µM.
In the case of `O=C(N[C@@H]1CCC[C@H](Nc2nc(-c3c[nH]c4ncc(Cl)cc34)ncc2F)C1)OCC1CCOC1` (stereo partly shown) [Compound 648], in experiment [1] (Influenza A virus, PR/8, MDCK, CPE assay, A/PR/8/34 infected MDCK cells, class symbols, read-out: IC50 (mean all)), the IC50 was < 5 µM. In experiment [2] (Influenza A virus, PR/8, MDCK, bDNA assay, A/PR/8/34 influenza virus replication in MDCK cells, class symbols, read-out: EC50 (mean all)), the EC50 is < 5 µM.
For the compound “(R)—N-cyclopropyl-2-((5-fluoro-2-(1H-pyrrolo[2,3-b]pyridin-3-yl)pyrimidin-4-ylamino)-methyl)piperidine-1-carboxamide [Compound 372]”, the IC50 in experiment [1] (read-out: IC50) fell in the range of 5 to 20 µM. The EC50 in experiment [2] (mean all, A/PR/8/34 influenza virus in MDCK cells, bDNA assay, read-out: EC50) is 5 to 10 µM.
Consider `CC(C)OC(=O)[C@@H]1CCCC[C@H]1Nc1nc(-c2c[nH]c3ncc(Cl)cc23)ncc1F` [Compound 568, (1R,2R)-isopropyl 2-(2-(5-chloro-1H-pyrrolo[2,3-b]pyridin-3-yl)-5-fluoropyrimidin-4-ylamino)cyclohexanecarboxylate], for which the IC50 in experiment [1] (setting [3]) was > 10 µM. In addition, the EC50 in experiment [2] (setting [4]) was > 10 µM.
On to `CCOC(=O)N1CCCC[C@H]1CNc1nc(-c2c[nH]c3ncc(Cl)cc23)ncc1F` [Compound 171, (S)-ethyl 2-((2-(5-chloro-1H-pyrrolo[2,3-b]pyridin-3-yl)-5-fluoropyrimidin-4-ylamino)methyl)piperidine-1-carboxylate], for which, in experiment [1] (setting [5]), the IC50 was > 20 µM. Besides, the half-maximal effective concentration (EC50) in experiment [2] (setting [6]) lay within 5 to 10 µM.
As for `CC(C)(C)CC(=O)NC1CCCC(Nc2nc(-c3c[nH]c4ncc(Cl)cc34)ncc2F)C1` (stereo not shown) [Compound 728], in experiment [1] (setting [7]), the IC50 is < 5 µM. Also, in experiment [2] (setting [8]), the EC50 was < 5 µM.
On to `CC1(O)CCC[C@H](Nc2nc(-c3c[nH]c4ncc(Cl)cc34)ncc2F)C1` (stereo partly shown) [Compound 571], for which the IC50 in experiment [1] (MDCK cells infected with A/PR/8/34, survival of infected cells, class symbols, read-out: IC50 (mean all)) was < 5 µM. The EC50 in experiment [2] (MDCK cells infected with A/PR/8/34, replication of influenza virus (viral RNA, bDNA), class symbols, read-out: EC50 (mean all)) was < 5 µM.
With `O=S(=O)(c1cccc(Br)c1)N1CCC[C@H](CNc2nc(-c3c[nH]c4ncc(Cl)cc34)ncc2F)C1` [Compound 67, (R)—N-((1-(3-bromophenylsulfonyl)piperidin-3-yl)methyl)-2-(5-chloro-1H-pyrrolo[2,3-b]pyridin-3-yl)-5-fluoropyrimidin-4-amine], the IC50 in experiment [1] (setting [5]) was < 5 µM. The EC50 in experiment [2] (setting [6]) is < 5 µM.

For the origin of these results see patent US8829007B2 (priority 2009, dated 2014).
